Source: US20160347807A1, “TARGETING P53 AND ITS DNA-BINDING DOMAIN” (UNIVERSITY OF UTAH RESEARCH DOUNDATION, priority 2014, published 2016)
Entries after “also recorded” stand apart in the source; their conditions may differ.

Assays:
[1] = tested on: T47D cells; assay: 7-AAD assay in T47D cells; assay type: cell-based, human; details: 48 h after transfection, EGFP positive cells only
Protocol: (§1) Transfected T47D, MCF-7, MDA-MB-231, HeLa and H1373 cells were pelleted and resuspended in 500 μL PBS (Invitrogen) containing 1 μM 7-aminoactinomycin D (7-AAD) (Invitrogen) for 30 min prior to analysis following the recommended protocol from the manufacturer. The assay was performed 48 h after transfection for T47D, MCF-7 and H1373 and 24 h after transfection for MDA-MB-231 and HeLa. Only EGFP positive cells were analyzed by using the FACS Canto-II (BD-BioSciences) with FACS Diva software. EGFP and 7-AAD were excited with the 488 nm laser, and were detected at 507 nm and 660 nm, respectively. Independent transfections of each construct were tested three times (n=3).
(§2) Transfected T47D, H1373, SKOV-3 and HeLa cells were pelleted and re-suspended in 500 μL PBS (Invitrogen) containing 1 μM 7-aminoactinomycin D (7-AAD) (Invitrogen) for 30 min prior to analysis. T47D and H1373 cells were analyzed 48 h after transfection, while SKOV-3 and HeLa cells were analyzed 24 h after transfection (time points optimized empirically). Only EGFP positive cells were assayed using the FACS Canto-II (BD-BioSciences) with FACS Diva software as previously. EGFP and 7-AAD were excited at 488 nm, and detected at 507 nm and 660 nm, respectively. Independent transfections of each construct were assayed three times (n=3). The highest value (EGFP positive cells stained with 7-AAD) was set at 100%, and the lowest at 0% (relative 7-AAD) as previously.

[2] = tested on: HeLa cells; assay: 7-AAD assay in HeLa cells; assay type: cell-based, human; details: 24 h after transfection
Protocol: as §1, §2

[3] = tested on: p53-Luc Cis-Reporter; assay: p53 reporter gene (dual luciferase) assay in T47D cells; assay type: cell-based, human; details: 24 h post transfection
Protocol: Luminescence was detected 24 h post transfection using PlateLumino (Stratec Biomedical Systems, Birkenfeld, Germany). Independent transfections of each constructs were assayed three times (n=3). The highest value was set at 100% and lowest value (untreated cells) was set as 0% (relative luminescence).

[4] = tested on: T47D cells; assay: Caspase-9 assay (SR FLICA) in T47D cells; assay type: cell-based, human; details: 48 h after transfection
Protocol: T47D cells were probed 48 h after transfection using SR FLICA Caspase-9 Assay Kit (Immunochemistry Technologies, Bloomington, Minn.). Cells were incubated with SR FLICA Caspase-9 reagent for 60 min per manufacturer's recommendations, pelleted and resuspended in 300 μL 1× wash buffer (Immunochemistry Technologies). Only EGFP positive cells were analyzed by using the FACS Canto-II (BD-BioSciences) with FACS Diva software. EGFP and FLICA were excited with the 488 nm (emission filter 530/35) and the 561 laser (emission filter 585/15), respectively. Independent transfections of each construct were tested three times (n=3).
As previously described, 48 h after transfection, T47D cells were tested with SR FLICA Caspase-9 Assay Kit (Immunochemistry Technologies, Bloomington, Minn.). Cells were incubated with SR FLICA Caspase-9 reagent for 60 min, pelleted and re-suspended in 300 μL, 1× wash buffer (Immunochemistry Technologies). The FACS Canto-II with FACS Diva software was used to analyzed only EGFP positive cells stained with caspase-9, both were excited with the 488 nm (emission filter 530/35) and the 561 nm laser (emission filter 585/15), respectively. Independent transfections of each construct were assayed three times (n=3). The highest value (EGFP positive cells stained with caspase-9) was set as 100% and the lowest as 0% (relative caspase-9).

[5] = tested on: H1373 cells; assay: 7-AAD assay in H1373 cells; assay type: cell-based, human; details: H1373 (p53 null), 48 h after transfection
Protocol: as §1, §2

[6] = tested on: T47D cells; assay: TMRE assay (MOMP) in T47D cells; assay type: cell-based, human; details: 36 h after transfection
Protocol: 36 h after transfection T47D cells were incubated with 100 nM tetramethylrhodamineethylester (TMRE) (Invitrogen) for 30 min at 37° C. T47D cells were pelleted and resuspended in 300 μL annexin-V binding buffer (1×) (Invitrogen). Only EGFP positive cells were analyzed by using the FACS Canto-II (BD-BioSciences) with FACS Diva software. EGFP was excited with the 488 nm laser with emission filter 530/35 and TMRE was excited with the 561 nm laser with the emission filter 585/15. Mitochondrial depolarization (loss in TMRE intensity) correlates with an increase in MOMP. Independent transfections of each construct were tested three times (n=3).
36 h after transfection T47D cells were incubated with 100 nM tetramethylrhodamine, ethylester (TMRE) (Invitrogen) for 30 min at 37° C., pelleted and resuspended in 300 μL annexin-V binding buffer (1×) (Invitrogen). The FACS Canto-II with FACS Diva software was used to analyze only EGFP positive cells (excited at 488 nm with emission 530/35) stained with TMRE (excited at 561 nm laser with the emission 585/15). Loss in TMRE intensity represents mitochondrial depolarization, which correlates with an increase in mitochondrial outer membrane permeabilization (MOMP). Independent transfections of each construct were assayed three times (n=3). The highest MOMP value was set as 100% and the lowest as 0% (relative MOMP) as before.

[7] = tested on: SKOV-3 cells; assay: 7-AAD assay in SKOV-3 cells; assay type: cell-based, human; details: SKOV-3 (p53 null), 24 h after transfection
Protocol: as §2

[8] = tested on: T47D cells; assay: Annexin V assay in T47D cells; assay type: cell-based, human; details: 48 h after transfection
Protocol: 48 h after transfection, T47D cells were pelleted and resuspended in 400 μL of annexin-V binding buffer (Invitrogen) and incubated with 5 μL of annexin-APC (annexin-V conjugated to allophycocyanin, Invitrogen) for 15 min as before. Only transfected cells were analyzed as mentioned in 7-AAD assay. EGFP and APC were excited at 488 nm and 635 nm wavelengths, respectively and detected at their corresponding 507 nm and 660 nm wavelengths. Independent transfections of each construct were tested three times (n=3).

[9] = target: T1, endogenous Bcl-XL (Homo sapiens, UniProt Q07817); assay: Co-immunoprecipitation with anti-GFP antibody, western blot for Bcl-XL; assay type: binding; details: T47D lysate 24 h post transfection, anti-GFP pull-down
T1 construct: endogenous in cells; host or cells: T47D human breast tumor cells
Protocol: Anti-GFP antibody (ab290, Abcam) was coupled to dynabeads using Dynabeads Antibody Coupling Kit (Invitrogen). 24 h post transfection, T47D cells were prepared using the Dynabeads Co-Immunoprecipitation Kit (Invitrogen). Cell pellets were lysed using extraction buffer B (1×IP, […] NaCl, 2 mM MgCl2, 1 mM DTT, 1% protease inhibitor). The lysate was incubated for 30 min at 4° C. with 1.5 mg of dynabeads coupled with anti-GFP antibody, and co-IP was performed per the company's protocol. The final protein complex was denatured and western blot was performed by using Bcl-XL antibody (ab 2568, Abcam).

[10] = tested on: H1373 cells; assay: 7-AAD rescue experiment in H1373 cells with or without p53R248Wmut; assay type: cell-based, human; details: H1373, 48 h post transfection; for apoptotic activity (7-AAD) when co-transfected with p53R248Wmut: dominant negative mutant overexpressed
Protocol: E-XL was created by inserting MTS from XL into EGFP-C1 vector. Lipofectamine was used as the transfection reagent as before. 48 h post transfection, cells were stained as described in the 7-AAD assay and gated for EGFP and BFP using the FACSCanto-II (BD-BioSciences) and FACSDiva software. Excitation for BFP was set at 405 nm and detected at 457 nm. The means from three separate experiments (n=3) were analyzed using two-way ANOVA with Bonferroni's post hoc test.

[11] = tested on: T47D cells; assay: Rescue experiment using BFP-Bcl-XL (7-AAD) in T47D cells; assay type: cell-based, human; details: 48 h after transfection, Bcl-XL overexpression
Protocol: T47D cells were co-transfected with 1 pmol of EGFP constructs and 1 pmol of BFP-Bcl-XL (BFP tag is necessary for gating Bcl-XL transfected cells). 48 h after transfection the 7-AAD assay was performed as described above. FACSCanto-II (BD-BioSciences) and FACSDiva software were used for EGFP and BFP gating. Excitation was set at 488 nm, and detected at 507 nm and 660 nm for EGFP and 7-AAD, respectively. BFP was excited at 405 nm and detected at 457 nm. Independent transfections of each construct were tested three times (n=3).

[12] = tested on: T47D cells; assay: Colony forming assay in T47D cells; assay type: cell-based, human; details: eight days after treatment
Protocol: Transfected T47D cells were harvested 24 h post transfection and resuspended in RPMI (Invitrogen) at a concentration of 3.0×10^5 cells/mL. The Cytoselect® 96-well cell transformation assay (Cell Biolabs, San Diego, Calif.) was used following manufacturer's recommendations. Equal amount of 1.2% Agar Solution, 2×DMEM/20% FBS media, and cell suspension (1:1:1) were mixed and 75 μL of the mixture was added to a 96-well plate containing a solidified base agar layer (50 μL of previously solidified 1.2% Agar Solution), and allowed to solidify at 4° C. for 15 min. The following steps were performed according to the manufacture's recommendations. A Spectra Max M2 plate reader (Molecular Devices, Sunnyvale, Calif.) was used to detect fluorescence using a 485/520 nm filter set. Independent transfections of each construct were tested three times (n=3).

[13] = tested on: T47D cells; assay: TUNEL assay in T47D cells; assay type: cell-based, human; details: 48 h after transfection
Protocol: T47D cells were harvested 48 h after transfection. In situ Death Detection Kit, TMR red (Roche, Mannheim, Germany) was used following manufacturer's recommendations as before. Cells were resuspended in PBS (Invitrogen) and analyzed via the FACSAria-II (BD-Biosciences, University of Utah Core Facility). EGFP and TMR red were excited at 488 nm and 563 nm, respectively, and FACSDiva software was used to analyze the data. Independent transfections of each construct were tested three times (n=3).

[14] = tested on: MCF-7; assay: 7-AAD assay in MCF-7 cells; assay type: cell-based, human; details: MCF-7, 48 h post transfection
Protocol: as §1

[15] = tested on: MDA-MB-231; assay: 7-AAD assay in MDA-MB-231 cells; assay type: cell-based, human; details: MDA-MB-231, 24 h after transfection
Protocol: as §1

Row | Substance | 7-AAD positive cells (late apoptosis) [1] | 7-AAD positive cells (late apoptosis) [2] | nuclear transcriptional activity (relative luminescence) [3] | caspase-9 activation [4] | 7-AAD positive cells (late apoptosis) [5] | % MOMP induction (loss of TMRE fluorescence) [6] | 7-AAD positive cells (late apoptosis) [7] | Annexin V positive cells (apoptotic potential) [8] | co-immunoprecipitation with Bcl-XL [9] | apoptosis (7-AAD) in the absence of p53R248Wmut [10] | apoptotic activity (7-AAD) when co-transfected with p53R248Wmut [10] | apoptotic activity (7-AAD) on cotransfection of BFP-Bcl-XL (rescue) [11] | transformative ability (colonies, relative fluorescence units) [12] | TUNEL positive cells (DNA fragmentation) [13] | 7-AAD positive cells (late apoptosis) [14] | 7-AAD positive cells (late apoptosis) [15]
1 | p53-BakMTS: MTS from Bak fused to the C-terminus of EGFP-p53 | significant apoptotic effect compared to their corresponding negative controls; also recorded: significantly higher apoptosis compared to cells transfected with MTS negative controls; also recorded: induce apoptosis similarly to wt p53 | significant from their corresponding negative controls | no nuclear activity | significant effect; also recorded: not significantly higher from wt p53 | statistically higher from their negative control E-BakMTS | not significantly higher from wt p53 | significantly higher than their negative control E-BakMTS | – | – | – | – | – | – | – | – | –
2 | p53-XL: full length p53 with EGFP on the amino terminus and the MTS from Bcl-XL (XL) on the C-terminus | not statistically significant from each other | – | – | higher caspase-9 activation than E-XL; also recorded: triggers caspase-9 activation significantly more than DBD-XL | – | – | – | significantly higher than the negative control E-XL | co-immunoprecipitated; also recorded: co-immunoprecipitates with endogenous Bcl-XL | significantly higher apoptosis compared to their negative controls E-XL and EGFP | capable of rescuing apoptotic activity | significantly reduced | significant decrease in transformative ability | not statistically significant from each other | – | –
3 | DBD-XL: EGFP, DNA binding domain of p53 and MTS from Bcl-XL | statistically higher than the negative control E-XL; also recorded: not statistically significant from each other | statistically significant from p53-XL | – | higher caspase-9 activation than E-XL | significantly higher apoptotic activity compared to p53-XL | – | – | significantly higher apoptotic response than p53-XL; also recorded: significantly higher than the negative control E-XL | – | significantly higher apoptosis compared to their negative controls E-XL and EGFP | capable of rescuing apoptotic activity | significantly reduced | significant decrease in transformative ability | not statistically significant from each other | significantly higher apoptotic activity compared to p53-XL | significantly higher apoptotic activity compared to p53-XL
